Laboratory results reported in the NIST ThermoML archive (doi:10.1016/j.jct.2016.03.021).

Experiment: wn = mass fraction of the nth substance listed
Conditions: Liquid; for mass density: Vibrating tube method

NCCO [2-aminoethan-1-ol] + O
mass density [kg/m3]
Conditions | w1 = 0.1001 | w1 = 0.2 | w1 = 0.3005 | w1 = 0.4
333.15 K, 30000 kPa | – | – | 1003.5 | 1006.7
333.15 K, 40000 kPa | 1002.7 | 1004.5 | 1007.3 | 1010.4
333.15 K, 50000 kPa | 1006.5 | 1008 | 1010.8 | 1013.8
333.15 K, 60000 kPa | 1010.4 | 1011.7 | 1014.4 | 1017.3
333.15 K, 70000 kPa | 1014.1 | 1015.2 | 1017.8 | 1020.7
333.15 K, 80000 kPa | 1017.7 | 1018.7 | 1021.1 | 1024
333.15 K, 90000 kPa | 1021.3 | 1022.1 | 1024.4 | 1027.1
333.15 K, 100000 kPa | 1024.8 | 1025.5 | 1027.7 | 1030.3
333.15 K, 110000 kPa | 1028.1 | 1028.8 | 1031 | 1033.5
333.15 K, 120000 kPa | 1031.7 | 1032.2 | 1034.2 | 1036.7
353.15 K, 100 kPa | 974.7 | 976.7 | 979.2 | 981.9
353.15 K, 500 kPa | 974.7 | 976.7 | 979.4 | 982
353.15 K, 1000 kPa | 975 | 976.9 | 979.6 | 982.2
353.15 K, 2000 kPa | 975.4 | 977.4 | 980 | 982.6
353.15 K, 5000 kPa | 976.7 | 978.6 | 981.2 | 983.9
353.15 K, 10000 kPa | 978.9 | 980.8 | 983.3 | 986
353.15 K, 15000 kPa | 981.1 | 982.9 | 985.4 | 988
353.15 K, 20000 kPa | 983.2 | 984.9 | 987.4 | 990
353.15 K, 30000 kPa | 987.4 | 988.9 | 991.4 | 993.9
353.15 K, 40000 kPa | 991.4 | 992.9 | 995.2 | 997.7
353.15 K, 50000 kPa | 995.4 | 996.7 | 999 | 1001.4
353.15 K, 60000 kPa | 999.4 | 1000.6 | 1002.7 | 1005.1
353.15 K, 70000 kPa | 1003.1 | 1004.2 | 1006.2 | 1008.6
353.15 K, 80000 kPa | 1006.9 | 1007.7 | 1009.8 | 1012.1
353.15 K, 90000 kPa | 1010.5 | 1011.3 | 1013.1 | 1015.3
353.15 K, 100000 kPa | 1014.1 | 1014.7 | 1016.6 | 1018.7
353.15 K, 110000 kPa | 1017.7 | 1018.2 | 1020 | 1022.1
353.15 K, 120000 kPa | 1021.2 | 1021.6 | 1023.3 | 1025.2
373.15 K, 100 kPa | 960.8 | 962.5 | 964.5 | 966.6
373.15 K, 500 kPa | 961 | 962.7 | 964.8 | 966.9
373.15 K, 1000 kPa | 961.3 | 962.9 | 965 | 967.1
373.15 K, 2000 kPa | 961.8 | 963.4 | 965.5 | 967.6
373.15 K, 5000 kPa | 963.1 | 964.7 | 966.8 | 968.9
373.15 K, 10000 kPa | 965.5 | 966.9 | 969 | 971.1
373.15 K, 15000 kPa | 967.7 | 969.1 | 971.2 | 973.3
373.15 K, 20000 kPa | 969.9 | 971.3 | 973.4 | 975.4
373.15 K, 30000 kPa | 974.4 | 975.6 | 977.6 | 979.7
373.15 K, 40000 kPa | 978.7 | 979.8 | 981.7 | 983.8
373.15 K, 50000 kPa | 982.8 | 983.7 | 985.6 | 987.6
373.15 K, 60000 kPa | 986.8 | 987.7 | 989.5 | 991.6
373.15 K, 70000 kPa | 990.8 | 991.5 | 993.3 | 995.2
373.15 K, 80000 kPa | 994.8 | 995.4 | 997.1 | 999.1
373.15 K, 90000 kPa | 998.5 | 999 | 1000.8 | 1002.5
373.15 K, 100000 kPa | 1002.2 | 1002.5 | 1004.2 | 1006
373.15 K, 110000 kPa | 1005.9 | 1006.1 | 1007.7 | 1009.5
373.15 K, 120000 kPa | 1009.6 | 1009.6 | 1011.1 | 1012.9
393.15 K, 100 kPa | 945.2 | 946.5 | 948.4 | 950
393.15 K, 500 kPa | 945.6 | 946.9 | 948.8 | 950.4
393.15 K, 1000 kPa | 945.8 | 947 | 948.9 | 950.6
393.15 K, 2000 kPa | 946.3 | 947.5 | 949.4 | 951.1
393.15 K, 5000 kPa | 947.8 | 949 | 950.9 | 952.5
393.15 K, 10000 kPa | 950.3 | 951.5 | 953.3 | 955
393.15 K, 15000 kPa | 952.7 | 953.8 | 955.7 | 957.3
393.15 K, 20000 kPa | 955.2 | 956.2 | 958.1 | 959.7
393.15 K, 30000 kPa | 959.8 | 960.7 | 962.6 | 964.3
393.15 K, 40000 kPa | 964.4 | 965.2 | 967 | 968.7
393.15 K, 50000 kPa | 968.7 | 969.4 | 971.1 | 972.8
393.15 K, 60000 kPa | 973 | 973.6 | 975.3 | 977
393.15 K, 70000 kPa | 977.3 | 977.8 | 979.5 | 981.1
393.15 K, 80000 kPa | 981.3 | 981.6 | 983.2 | 985
393.15 K, 90000 kPa | 985.2 | 985.6 | 987.1 | 988.8
393.15 K, 100000 kPa | 989.1 | 989.4 | 990.9 | 992.5
393.15 K, 110000 kPa | 993 | 993 | 994.6 | 996.2
393.15 K, 120000 kPa | 996.7 | 996.7 | 998.2 | 999.7

viscosity [mPa·s]
Conditions | 333.15 K | 353.15 K
93 kPa, Concentric cylinders viscometry, w1 = 0.3 | – | 0.764
93 kPa, Concentric cylinders viscometry, w1 = 0.4 | – | 0.9518
100 kPa, Falling or rolling sphere viscometry, w1 = 0.3005 | – | 0.746
100 kPa, Falling or rolling sphere viscometry, w1 = 0.4001 | – | 0.942
101 kPa, Falling or rolling sphere viscometry, w1 = 0.3 | – | 0.746
101 kPa, Falling or rolling sphere viscometry, w1 = 0.4 | – | 0.942
5000 kPa, Falling or rolling sphere viscometry, w1 = 0.3005 | – | 0.748
5000 kPa, Falling or rolling sphere viscometry, w1 = 0.4001 | – | 0.944
10000 kPa, Falling or rolling sphere viscometry, w1 = 0.3005 | – | 0.755
10000 kPa, Falling or rolling sphere viscometry, w1 = 0.4001 | – | 0.957
20000 kPa, Falling or rolling sphere viscometry, w1 = 0.3005 | – | 0.768
20000 kPa, Falling or rolling sphere viscometry, w1 = 0.4001 | – | 0.975
30000 kPa, Falling or rolling sphere viscometry, w1 = 0.3005 | – | 0.777
30000 kPa, Falling or rolling sphere viscometry, w1 = 0.4001 | – | 0.989
40000 kPa, Falling or rolling sphere viscometry, w1 = 0.1001 | 0.63 | –
40000 kPa, Falling or rolling sphere viscometry, w1 = 0.2 | 0.815 | –
40000 kPa, Falling or rolling sphere viscometry, w1 = 0.3005 | 1.115 | 0.787
40000 kPa, Falling or rolling sphere viscometry, w1 = 0.4001 | 1.475 | 1.006
60000 kPa, Falling or rolling sphere viscometry, w1 = 0.1001 | 0.639 | –
60000 kPa, Falling or rolling sphere viscometry, w1 = 0.2 | 0.829 | 0.607
60000 kPa, Falling or rolling sphere viscometry, w1 = 0.3005 | 1.14 | 0.807
60000 kPa, Falling or rolling sphere viscometry, w1 = 0.4001 | 1.518 | 1.039
80000 kPa, Falling or rolling sphere viscometry, w1 = 0.1001 | 0.646 | –
80000 kPa, Falling or rolling sphere viscometry, w1 = 0.2 | 0.844 | 0.619
80000 kPa, Falling or rolling sphere viscometry, w1 = 0.3005 | 1.165 | 0.828
80000 kPa, Falling or rolling sphere viscometry, w1 = 0.4001 | 1.559 | 1.068
100000 kPa, Falling or rolling sphere viscometry, w1 = 0.1001 | 0.655 | –
100000 kPa, Falling or rolling sphere viscometry, w1 = 0.2 | 0.859 | 0.632
100000 kPa, Falling or rolling sphere viscometry, w1 = 0.3005 | 1.189 | 0.847
100000 kPa, Falling or rolling sphere viscometry, w1 = 0.4001 | 1.6 | 1.097
120000 kPa, Falling or rolling sphere viscometry, w1 = 0.1001 | 0.663 | –
120000 kPa, Falling or rolling sphere viscometry, w1 = 0.2 | 0.874 | 0.644
120000 kPa, Falling or rolling sphere viscometry, w1 = 0.3005 | 1.211 | 0.861
120000 kPa, Falling or rolling sphere viscometry, w1 = 0.4001 | 1.645 | 1.128
